pKi: −log10 of the molar value.
Tests used:
[1] = target: T1, PCSK9 (Homo sapiens, UniProt Q8NBP7); assay: PCSK9 Alexa FRET Plus TR-FRET assay (displacement of AlexaFluor647 tagged cyclic peptide Reagent B); assay type: binding; details: 0.5 nM biotinylated PCSK9, 960 nM AF cyclic peptide Reagent B, Ki calculated from IC50 and KD of AF peptide
T1 construct: Biotinylated PCSK9 was obtained commercially; purchased
Experimental: (§1) The following is a description of the assays used to determine activity of compounds of the invention, and any comparator compounds reported, toward PCSK9 antagonism. Biotinylated PCSK9 was obtained commercially.
A solution containing 1 nM biotinylated PCSK9+2.5 nM Lance Streptavidin Europium (Strep-Eu) is made in 50 mM HEPES pH 7.4, 0.15 M NaCl, 5 mM CaCl2, 0.01% BSA, and 0.01% Surfactant P20. A separate solution containing 1920 nM of the AlexaFluor tagged cyclic peptide is made in the same buffer system. An Echo is used to transfer 0.075 ul of compound plus 0.675 ul of DMSO to each well of an assay plate followed by the addition of 15 ul of PCSK9+Stept-Eu and 15 ul of AF peptide. The final assay volume is 30.750 ul containing 0.5 nM PCSK9, 1.25 nM Strep-Eu, and 960 nM AF cyclic peptide. The reaction is incubated at room temperature for at least two hours prior to fluorescence measurements using an Envision Multilabel Reader. IC50 values are determined by fitting data to a sigmoidal dose-response curve using nonlinear regression. Ki is then calculated from the IC50 and the KD of AF cyclic peptide. Counts (B-counts) of the europium-labeled PCSK9 are followed to observe if compounds are adversely affecting PCSK9. A fall off of the B-counts is likely indicates a false positive of inhibition. Data from this procedure is reported as “P=‘numerical value’ (nanomolar)”
Activity data obtained by one or both of the above-described procedures is reported for selected example compounds of the invention in the following format: Example No.: A (standard TR Fret)=‘numerical value’; P (Alexa Fret plus standard TR Fret)=‘numerical value’/, note that all values reported are nanomolar.

[2] = target: T1, PCSK9; assay: PCSK9 Alexa FRET Ultra TR-FRET assay (displacement of AlexaFluor647 tagged cyclic peptide); assay type: binding; details: 0.5 nM biotinylated PCSK9, 960 nM AF cyclic peptide, Ki calculated from IC50 and KD of AF peptide
Experimental: as §1
A solution containing 1 nM biotinylated PCSK9+2.5 nM Lance Streptavidin Europium (Strep-Eu) is made in 50 mM HEPES pH 7.4, 0.15 M NaCl, 5 mM CaCl2, 0.01% BSA, and 0.01% Surfactant P20. A separate solution containing 1920 nM of the AlexaFluor tagged cyclic peptide is made in the same buffer system. An Echo is used to transfer 0.015 ul of compound plus 0.735 ul of DMSO to each well of an assay plate followed by the addition of 15 ul of PCSK9+Stept-Eu and 15 ul of AF peptide. The final assay volume is 30.750 ul containing 0.5 nM PCSK9, 1.25 nM Strep-Eu, and 960 nM AF cyclic peptide. The reaction is incubated at room temperature for at least two hours prior to fluorescence measurements using an Envision Multilabel Reader. IC50 values are determined by fitting data to a sigmoidal dose-response curve using nonlinear regression. Ki is then calculated from the IC50 and the KD of AF cyclic peptide. Counts (B-counts) of the europium-labeled PCSK9 are followed to observe if compounds are adversely affecting PCSK9. A fall off of the B-counts is likely indicates a false positive of inhibition. Data from this procedure is reported as “Ki Ultra=‘numerical value’ (data reported is nanomolar)”

T1 sequence (Q8NBP7 153-692): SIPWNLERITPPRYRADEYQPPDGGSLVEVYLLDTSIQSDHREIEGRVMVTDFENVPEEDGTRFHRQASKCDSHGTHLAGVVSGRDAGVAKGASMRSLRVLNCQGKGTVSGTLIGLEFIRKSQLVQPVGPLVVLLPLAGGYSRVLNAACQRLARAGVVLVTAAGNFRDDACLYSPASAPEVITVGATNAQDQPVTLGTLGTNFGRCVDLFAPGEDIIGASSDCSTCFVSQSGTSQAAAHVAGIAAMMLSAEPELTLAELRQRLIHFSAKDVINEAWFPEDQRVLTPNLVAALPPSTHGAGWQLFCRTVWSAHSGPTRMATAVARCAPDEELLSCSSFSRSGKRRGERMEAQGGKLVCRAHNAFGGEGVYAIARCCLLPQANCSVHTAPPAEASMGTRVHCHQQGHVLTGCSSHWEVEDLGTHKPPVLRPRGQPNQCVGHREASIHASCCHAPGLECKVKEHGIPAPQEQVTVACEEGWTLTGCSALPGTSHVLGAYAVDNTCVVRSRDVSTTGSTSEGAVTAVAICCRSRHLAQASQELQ

SMILES	pKi ([1]; read-out: Ki Plus)	pKi ([2]; read-out: Ki Ultra)	pKi ([1]; Ki Plus)	pKi ([2]; Ki Ultra)
COc1ccc(C[C@@H]2NC(=O)[C@H]([C@@H](C)O)NC(=O)[C@@H]3[C@@H]4CCN3C(=O)[C@@H]3Cc5cn(c6ccc(F)cc56)Cc5cn(nn5)Cc5cc(ccc5CNC(=O)CCC(=O)N[C@@H](C)C(=O)N[C@H](CNC(=O)CCOCCOCC[N+](C)(C)C)C(=O)N[C@@H](Cc5cccc(c5)CNC(=O)CO4)C(=O)N3)CCNC(=O)[C@]3(C)CCCN3C2=O)cc1 [Ex-08]	10.80	10.17		
COc1ccc(C[C@@H]2NC(=O)[C@H]([C@@H](C)O)NC(=O)[C@@H]3C4CCN3C(=O)[C@@H]3Cc5cn(c6ccc(F)cc56)CCCCC[C@@H](NC(=O)CCC(=O)N[C@@H](C)C(=O)N[C@H](CNC(=O)CCOCCOCC[N+](C)(C)C)C(=O)N[C@@H](Cc5cccc(c5)CNC(=O)CO4)C(=O)N3)c3ccc(cc3)CCNC(=O)[C@]3(C)CCCN3C2=O)cc1 [Ex-48]			10.93	10.81
COc1ccc(C[C@@H]2NC(=O)[C@H]([C@@H](C)O)NC(=O)[C@@H]3[C@@H]4CCN3C(=O)[C@@H]3Cc5cn(c6ccc(F)cc56)CCCCCCN(Cc5ccc(cc5)CCNC(=O)[C@]5(C)CCCN5C2=O)C(=O)CCC(=O)N[C@H]2CN(C(=O)CCOCCOCC[N+](C)(C)C)CCCCC(=O)NC[C@@H](NC2=O)C(=O)N[C@@H](Cc2cccc(c2)CNC(=O)CO4)C(=O)N3)cc1 [Ex-19]	10.78	10.92		
COc1ccc(C[C@@H]2NC(=O)[C@H]([C@@H](C)O)NC(=O)[C@@H]3[C@@H]4CCN3C(=O)[C@@H]3Cc5cn(c6ccc(F)cc56)Cc5cn(nn5)C[C@@H](NC(=O)CCC(=O)N[C@@H](CNC(=O)CCOCCOCC[N+](C)(C)C)C(=O)N[C@H](C)C(=O)N[C@@H](Cc5cccc(c5)CNC(=O)CO4)C(=O)N3)c3ccc(cc3)CCNC(=O)[C@]3(C)CCCN3C2=O)cc1 [Ex-11]	10.36	9.68		
COc1ccc(C[C@@H]2NC(=O)[C@H]([C@@H](C)O)NC(=O)[C@@H]3[C@@H]4CCN3C(=O)[C@@H]3Cc5cn(c6ccc(F)cc56)CCCCCCN(Cc5ccc(cc5)CCNC(=O)[C@]5(C)CCCN5C2=O)C(=O)CCCCC(=O)N[C@H](CNC(=O)CCOCCOCC[N+](C)(C)C)C(=O)N[C@@H](Cc2cccc(c2)CNC(=O)CO4)C(=O)N3)cc1 [Ex-20]	10.89	10.77		
COc1ccc(C[C@@H]2NC(=O)[C@H]([C@@H](C)O)NC(=O)[C@@H]3[C@@H]4CCN3C(=O)[C@@H]3Cc5cn(c6ccc(F)cc56)CCCCCCN(Cc5ccc(cc5)CCNC(=O)[C@]5(C)CCCN5C2=O)C(=O)CCC(=O)N[C@@H](CCCC[N+](C)(C)C)C(=O)N[C@H](CNC(=O)CCOCCOCC[N+](C)(C)C)C(=O)N[C@@H](Cc2cccc(c2)CNC(=O)CO4)C(=O)N3)cc1 (stereo in doubt) [Ex-24]			11.09	11.12
COc1ccc(C[C@@H]2NC(=O)[C@H]([C@@H](C)O)NC(=O)[C@@H]3[C@@H]4CCN3C(=O)[C@@H]3Cc5cn(c6ccc(F)cc56)C/C=C/CCCN(Cc5ccc(cc5)CCNC(=O)[C@]5(C)CCCN5C2=O)C(=O)CCC(=O)N[C@@H](C)C(=O)N[C@H](CNC(=O)CCCCC[N+](C)(C)C)C(=O)N[C@@H](Cc2cccc(c2)CNC(=O)CO4)C(=O)N3)cc1 [Ex-06]	11.25	11.47		
COc1ccc(C[C@@H]2NC(=O)[C@H]([C@@H](C)O)NC(=O)[C@@H]3[C@@H]4CCN3C(=O)[C@@H]3Cc5cn(c6ccc(F)cc56)CCCCCCN(Cc5cccc(c5)CCNC(=O)[C@]5(C)CCCN5C2=O)C(=O)CCC(=O)N[C@@H](C)C(=O)N[C@H](CNC(=O)CCCCC[N+](C)(C)C)C(=O)N[C@@H](Cc2cccc(c2)CNC(=O)CO4)C(=O)N3)cc1 [Ex-44]			10.84	10.66
COc1ccc(C[C@@H]2NC(=O)[C@H]([C@@H](C)O)NC(=O)[C@@H]3[C@@H]4CCN3C(=O)[C@@H]3Cc5cn(c6ccc(F)cc56)CCCCCN(Cc5ccc(cc5)CCNC(=O)[C@]5(C)CCCN5C2=O)C(=O)CCC(=O)N[C@@H](C)C(=O)N[C@H](CNC(=O)CCOCCOCC[N+](C)(C)C)C(=O)N[C@@H](Cc2cccc(c2)CNC(=O)CO4)C(=O)N3)cc1 [Ex-17]	≥ 11.25	11.55		
COc1ccc(C[C@@H]2NC(=O)[C@H]([C@@H](C)O)NC(=O)[C@@H]3[C@@H]4CCN3C(=O)[C@@H]3Cc5cn(c6ccc(F)cc56)C/C=C/CN(Cc5ccc(cc5)CCNC(=O)[C@]5(C)CCCN5C2=O)C(=O)CCC(=O)N[C@@H](C)C(=O)N[C@H](CNC(=O)CCOCCOCC[N+](C)(C)C)C(=O)N[C@@H](Cc2cccc(c2)CNC(=O)CO4)C(=O)N3)cc1 [Ex-29]	11.01	11.21		
COc1ccc(C[C@@H]2NC(=O)[C@H]([C@@H](C)O)NC(=O)[C@@H]3[C@@H]4CCN3C(=O)[C@@H]3Cc5cn(c6ccc(F)cc56)CCCCCCN(Cc5ccc(cc5)CCNC(=O)[C@]5(C)CCCN5C2=O)C(=O)CCC(=O)N[C@@H](C)C(=O)N[C@H](CNC(=O)CCOCCCCC[N+](C)(C)C)C(=O)N[C@@H](Cc2cccc(c2)CNC(=O)CO4)C(=O)N3)cc1 [Ex-59]			11.10	11.30
COc1ccc(C[C@@H]2NC(=O)[C@H]([C@@H](C)O)NC(=O)[C@@H]3[C@@H]4CCN3C(=O)[C@@H]3Cc5cn(c6ccc(F)cc56)CCCCCCN(Cc5ccc(cc5)CCNC(=O)[C@]5(C)CCCN5C2=O)C(=O)CCCC(=O)N[C@H](CNC(=O)CCOCCOCC[N+](C)(C)C)C(=O)N[C@@H](Cc2cccc(c2)CNC(=O)CO4)C(=O)N3)cc1 [Ex-18]			10.47	9.93
COc1ccc(C[C@@H]2NC(=O)[C@H]([C@@H](C)O)NC(=O)[C@@H]3[C@@H]4CCN3C(=O)[C@@H]3Cc5cn(c6ccc(F)cc56)CCCCCOCc5cc(ccc5CNC(=O)CCC(=O)N[C@@H](C)C(=O)N[C@H](CNC(=O)CCCCC[N+](C)(C)C)C(=O)N[C@@H](Cc5cccc(c5)CNC(=O)CO4)C(=O)N3)CCNC(=O)[C@]3(C)CCCN3C2=O)cc1 [Ex-39]			11.15	11.38
COc1ccc(C[C@@H]2NC(=O)[C@H]([C@@H](C)O)NC(=O)[C@@H]3[C@@H]4CCN3C(=O)[C@@H]3Cc5cn(c6ccc(F)cc56)CCCCCCN(Cc5ccc(cc5)CCNC(=O)[C@]5(C)CCCN5C2=O)C(=O)CCC(=O)N[C@@H](C)C(=O)N[C@H](CNC(=O)CCCCC[N+](C)(C)C)C(=O)N[C@@H](Cc2cccc(c2)CNC(=O)CO4)C(=O)N3)cc1 [Ex-25]	10.95			11.33
COc1ccc(C[C@@H]2NC(=O)[C@H]([C@@H](C)O)NC(=O)[C@@H]3[C@@H]4CCN3C(=O)[C@@H]3Cc5cn(c6ccc(F)cc56)Cc5cn(nn5)CCN(Cc5ccc(cc5)CCNC(=O)[C@]5(C)CCCN5C2=O)C(=O)CCC(=O)N[C@@H](C)C(=O)N[C@H](CNC(=O)CCOCCOCC[N+](C)(C)C)C(=O)N[C@@H](Cc2cccc(c2)CNC(=O)CO4)C(=O)N3)cc1 [Ex-14]	10.79	10.68		
COc1ccc(C[C@@H]2NC(=O)[C@H]([C@@H](C)O)NC(=O)[C@@H]3[C@@H]4CCN3C(=O)[C@@H]3Cc5cn(c6ccc(F)cc56)CCCCCCN(Cc5ccc(cc5)CCNC(=O)[C@]5(C)CCCN5C2=O)C(=O)CCCCCC(=O)N[C@H](CNC(=O)CCOCCOCC[N+](C)(C)C)C(=O)N[C@@H](Cc2cccc(c2)CNC(=O)CO4)C(=O)N3)cc1 [Ex-21]			11.24	11.90
COc1ccc(C[C@@H]2NC(=O)[C@H]([C@@H](C)O)NC(=O)[C@@H]3[C@@H]4CCN3C(=O)[C@@H]3Cc5cn(c6ccc(F)cc56)CCCCCCN(Cc5ccc(cc5)CCNC(=O)[C@]5(C)CCCN5C2=O)C(=O)CCC(=O)N[C@@H](CNC(=O)CCOCCOCC[N+](C)(C)C)C(=O)N[C@H](C)C(=O)N[C@@H](Cc2cccc(c2)CNC(=O)CO4)C(=O)N3)cc1 [Ex-22]	11.03	10.82		
